The text below walks through data of US20260022142A1, “MACROCYCLIC IMMUNOMODULATORS” (Bristol-Myers Squibb Company, priority 2022, published 2026).

pIC50: −log10 of the molar value. Bridge positions count the residues as written; N and C are the ends. Square brackets hold non-standard residues; d marks the D form. Peptide text beside a SMILES is read from it. * marks the point of attachment. ξ: configuration not given here. Bip = N[C@@H](Cc1ccc(-c2ccccc2)cc1)C(=O)O; Phe(3-Me) = Cc1cccc(C[C@H](N)C(=O)O)c1; hArg = N=C(N)NCCCC[C@H](N)C(=O)O; 3Thi = N[C@@H](Cc1ccsc1)C(=O)O; Cha = N[C@@H](CC1CCCCC1)C(=O)O; Cit = NC(=O)NCCC[C@H](N)C(=O)O; Thr(3ξ) = CC(O)[C@H](N)C(=O)O; NMeNle = CCCC[C@H](NC)C(=O)O; 12Ado = NCCCCCCCCCCCC(=O)O; Carboxymethyl = O=C(O)C*; Orn = NCCC[C@H](N)C(=O)O; Aun = NCCCCCCCCCCC(=O)O; Dab = NCC[C@H](N)C(=O)O; Piv = CC(C)(C)C(=O)*

T1 sequence (Q15116 25-288): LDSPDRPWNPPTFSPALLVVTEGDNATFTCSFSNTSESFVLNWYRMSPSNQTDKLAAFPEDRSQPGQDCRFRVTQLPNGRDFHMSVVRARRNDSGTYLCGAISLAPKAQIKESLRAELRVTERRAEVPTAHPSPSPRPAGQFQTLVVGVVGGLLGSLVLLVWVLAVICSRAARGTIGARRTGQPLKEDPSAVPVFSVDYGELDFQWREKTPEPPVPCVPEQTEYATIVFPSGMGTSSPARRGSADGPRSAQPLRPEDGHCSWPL

This assay addresses T1, PD-1/PD-L1 interaction (PE-labeled human PD-L1-Ig binding to Jurkat cell line over-expressing human PD-1) (Homo sapiens, UniProt Q15116).
T1 construct: expressed in transfected cells; host or cells: Jurkat
As to the kind of experiment: Jurkat-PD-1 Cell Binding High-Content Screening Assay (CBA). Type of assay: cell-based. The following applies: Jurkat cell line over-expressing human PD-1; PE-labeled PD-L1-Ig 20 nM final; read-out: Jurkat hPD1-PDL1 IC50. Put shortly:
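Binding of fluorescent PD-L1-Ig (phycoerythrin on Ig tag, 20 nM final, 1 h) measured by high-content imaging of fixed, Hoechst-counterstained Jurkat-hPD-1 cells. Compound added 2 h at 37° C beforehand, in DMEM with 10% fetal calf serum.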
Regarding `CC(=O)NCCCC[C@@H]1NC(=O)[C@H](Cc2ccc(-c3ccccc3)cc2)NC(=O)[C@H](Cc2ccc(O)cc2)NC(=O)[C@H](Cc2cccc(C)c2)NC(=O)[C@H](CC(=O)O)NC(=O)[C@H](Cc2ccc(OCC(=O)O)cc2)NC(=O)[C@H](CCCNC(=N)N)NC(=O)CSC[C@@H](C(=O)N[C@H](CC(N)=O)C(=O)NCCCCCCCCCCC(=O)O)NC(=O)[C@H](C(C)O)NC(=O)[C@H](C(C)C)NC(=O)[C@H](CC2CCCCC2)NC(=O)[C@H](CCN)NC(=O)[C@@H](CC(C)C)NC(=O)[C@H](CCCNC(N)=O)NC1=O` (stereo partly drawn) [Compound 3541] ({CH2CO}-RY(Carboxymethyl)D[Phe(3-Me)]Y[Bip]K(Ac)[Cit][dL][Dab][Cha]V[Thr(3ξ)]C[dN][Aun]-OH; thioether N-14), the negative-log IC50 (pIC50) is 8.00.
The figure for `Cc1cccc(C[C@@H]2NC(=O)[C@H](CC(=O)O)NC(=O)[C@H](Cc3ccc(OCC(=O)O)cc3)NC(=O)[C@H](CCCNC(=N)N)NC(=O)CSC[C@@H](C(=O)N[C@H](CC(N)=O)C(=O)NCCCCCCCCCCC(=O)O)NC(=O)[C@H](C(C)O)NC(=O)[C@H](C(C)C)NC(=O)[C@H](CC3CCCCC3)NC(=O)[C@H](CCN)NC(=O)[C@@H](CC(C)C)NC(=O)[C@H](CCCNC(=N)N)NC(=O)[C@H](CCCCNC(=O)C(C)(C)C)NC(=O)[C@H](Cc3ccc(-c4ccccc4)cc3)NC(=O)[C@H](Cc3ccc(O)cc3)NC2=O)c1` (stereo partly drawn) [Compound 3542] ({CH2CO}-RY(Carboxymethyl)D[Phe(3-Me)]Y[Bip]K(Piv)R[dL][Dab][Cha]V[Thr(3ξ)]C[dN][Aun]-OH; thioether N-14) is 7.42; for `CC(=O)NCCCC[C@@H]1NC(=O)[C@H](Cc2ccc(-c3ccccc3)cc2)NC(=O)[C@H](Cc2ccc(O)cc2)NC(=O)[C@H](Cc2cccc(C)c2)NC(=O)[C@H](CC(=O)O)NC(=O)[C@H](Cc2ccc(OCC(=O)O)cc2)NC(=O)[C@H](CCCNC(=N)N)NC(=O)CSC[C@@H](C(=O)N[C@H](CC(N)=O)C(=O)NCCCCCCCCCCC(=O)O)NC(=O)[C@H](C(C)O)NC(=O)[C@H](C(C)C)NC(=O)[C@H](CC2CCCCC2)NC(=O)[C@H](CCN)NC(=O)[C@@H](CC(C)C)NC(=O)[C@H](CCC(N)=O)NC1=O` (stereo partly drawn) [Compound 3543] ({CH2CO}-RY(Carboxymethyl)D[Phe(3-Me)]Y[Bip]K(Ac)Q[dL][Dab][Cha]V[Thr(3ξ)]C[dN][Aun]-OH; thioether N-14) it is 7.88.
`Cc1cccc(C[C@@H]2NC(=O)[C@H](CC(=O)O)NC(=O)[C@H](Cc3ccc(OCC(=O)O)cc3)NC(=O)[C@H](CCCNC(=N)N)NC(=O)CSC[C@@H](C(=O)N[C@@H](CCN)C(=O)NCCCCCCCCCCC(=O)O)NC(=O)[C@H](Cc3ccsc3)NC(=O)[C@H](C(C)C)NC(=O)[C@H](CC3CCCCC3)NC(=O)[C@H](CCN)NC(=O)[C@@H](CC(C)C)NC(=O)[C@H](CCCN)NC(=O)[C@H](Cc3ccc(OCC(=O)O)cc3)NC(=O)[C@H](Cc3ccc(-c4ccccc4)cc3)NC(=O)[C@H](Cc3ccc(OCC(=O)O)cc3)NC2=O)c1` [Compound 3545] ({CH2CO}-RY(Carboxymethyl)D[Phe(3-Me)]Y(Carboxymethyl)[Bip]Y(Carboxymethyl)[Orn][dL][Dab][Cha]V[3Thi]C[Dab][Aun]-OH; thioether N-14): the negative logarithm of the IC50 (pIC50) is 6.81.
Next, `Cc1cccc(C[C@@H]2NC(=O)[C@H](CC(=O)O)NC(=O)[C@H](Cc3ccc(OCC(=O)O)cc3)NC(=O)[C@H](CCCCNC(=N)N)NC(=O)CSC[C@@H](C(=O)N[C@@H](CCCCN)C(=O)N[C@@H](CO)C(=O)NCCCCCCCCCCC(=O)O)NC(=O)[C@H](C(C)O)NC(=O)[C@H](C(C)O)NC(=O)[C@H](CC3CCCCC3)NC(=O)[C@H](CCN)NC(=O)[C@@H](CC(C)C)NC(=O)[C@H](CCCN)NC(=O)[C@H](CCCNC(=N)N)NC(=O)[C@H](Cc3ccc(-c4ccccc4)cc3)NC(=O)[C@H](C(C)C)NC2=O)c1` (stereo partly drawn) [Compound 3547] ({CH2CO}-[hArg]Y(Carboxymethyl)D[Phe(3-Me)]V[Bip]R[Orn][dL][Dab][Cha][Thr(3ξ)][Thr(3ξ)]CKS[Aun]-OH; thioether N-14): 7.13.
The figure for `CC(=O)NCCCC[C@@H]1NC(=O)[C@H](Cc2ccc(-c3ccccc3)cc2)NC(=O)[C@H](C(C)C)NC(=O)[C@H](Cc2cccc(C)c2)NC(=O)[C@H](CC(=O)O)NC(=O)[C@H](Cc2ccc(OCC(=O)O)cc2)NC(=O)[C@H](CCCNC(=N)N)NC(=O)CSC[C@@H](C(=O)N[C@H](CC(N)=O)C(=O)NCCCCCCCCCCC(=O)O)NC(=O)[C@H](C(C)O)NC(=O)[C@H](C(C)C)NC(=O)[C@H](CC2CCCCC2)NC(=O)[C@H](CCN)NC(=O)[C@@H](CC(C)C)NC(=O)[C@H](CCCN)NC1=O` (stereo partly drawn) [Compound 3548] ({CH2CO}-RY(Carboxymethyl)D[Phe(3-Me)]V[Bip]K(Ac)[Orn][dL][Dab][Cha]V[Thr(3ξ)]C[dN][Aun]-OH; thioether N-14) is 7.95; for `Cc1cccc(C[C@@H]2NC(=O)[C@H](CC(=O)O)NC(=O)[C@H](Cc3ccc(OCC(=O)O)cc3)NC(=O)[C@H](CCCNC(=N)N)NC(=O)CSC[C@@H](C(=O)N[C@@H](CCCCN)C(=O)N[C@@H](CO)C(=O)NCCCCCCCCCCCC(=O)O)NC(=O)[C@H](C(C)O)NC(=O)[C@H](C(C)C)NC(=O)[C@H](CC3CCCCC3)NC(=O)[C@H](CCN)NC(=O)[C@@H](CC(C)C)NC(=O)[C@H](CCCN)NC(=O)[C@H](CCCNC(N)=O)NC(=O)[C@H](Cc3ccc(-c4ccccc4)cc3)NC(=O)[C@H](C(C)C)NC2=O)c1` (stereo partly drawn) [Compound 3549] ({CH2CO}-RY(Carboxymethyl)D[Phe(3-Me)]V[Bip][Cit][Orn][dL][Dab][Cha]V[Thr(3ξ)]CKS[12Ado]-OH; thioether N-14) it is 7.43; for `Cc1cccc(C[C@@H]2NC(=O)[C@H](CC(=O)O)NC(=O)[C@H](Cc3ccc(OCC(=O)O)cc3)NC(=O)[C@H](CCCNC(=N)N)NC(=O)CSC[C@@H](C(=O)N[C@@H](CCCCN)C(=O)N[C@@H](CO)C(=O)NCCCCCCCCCCCC(=O)O)NC(=O)[C@H](C(C)O)NC(=O)[C@H](C(C)C)NC(=O)[C@H](CC3CCCCC3)NC(=O)[C@H](CCN)NC(=O)[C@@H](CC(C)C)NC(=O)[C@H](CCCN)NC(=O)[C@H](CCCNC(=N)N)NC(=O)[C@H](Cc3ccc(-c4ccccc4)cc3)NC(=O)[C@H](Cc3ccc(O)cc3)NC2=O)c1` (stereo partly drawn) [Compound 3550] ({CH2CO}-RY(Carboxymethyl)D[Phe(3-Me)]Y[Bip]R[Orn][dL][Dab][Cha]V[Thr(3ξ)]CKS[12Ado]-OH; thioether N-14) it is 7.12.
The figure for `Cc1cccc(C[C@@H]2NC(=O)[C@H](CC(=O)O)NC(=O)[C@H](Cc3ccc(OCC(=O)O)cc3)NC(=O)[C@H](CCCCNC(=N)N)NC(=O)CSC[C@@H](C(=O)N[C@@H](CCN)C(=O)NCCCCCCCCCCCC(=O)O)NC(=O)[C@H](C(C)O)NC(=O)[C@H](C(C)C)NC(=O)[C@H](CC3CCCCC3)NC(=O)[C@H](CCN)NC(=O)[C@@H](CC(C)C)NC(=O)[C@H](CCCN)NC(=O)[C@H](CCCNC(N)=O)NC(=O)[C@H](Cc3ccc(-c4ccccc4)cc3)NC(=O)[C@H](C(C)C)NC2=O)c1` (stereo partly drawn) [Compound 3551] ({CH2CO}-[hArg]Y(Carboxymethyl)D[Phe(3-Me)]V[Bip][Cit][Orn][dL][Dab][Cha]V[Thr(3ξ)]C[Dab][12Ado]-OH; thioether N-14) is 7.48; for `Cc1cccc(C[C@@H]2NC(=O)[C@H](CC(=O)O)NC(=O)[C@H](Cc3ccc(OCC(=O)O)cc3)NC(=O)[C@H](CCCCNC(=N)N)NC(=O)CSC[C@@H](C(=O)N[C@H](CCC(=O)O)C(=O)NCCCCCCCCCCCC(=O)O)NC(=O)[C@H](C(C)O)NC(=O)[C@H](C(C)C)NC(=O)[C@H](CC3CCCCC3)NC(=O)[C@H](CCN)NC(=O)[C@@H](CC(C)C)NC(=O)[C@H](CCCN)NC(=O)[C@H](CCCNC(N)=O)NC(=O)[C@H](Cc3ccc(-c4ccccc4)cc3)NC(=O)[C@H](C(C)C)NC2=O)c1` (stereo partly drawn) [Compound 3552] ({CH2CO}-[hArg]Y(Carboxymethyl)D[Phe(3-Me)]V[Bip][Cit][Orn][dL][Dab][Cha]V[Thr(3ξ)]C[dE][12Ado]-OH; thioether N-14) it is 7.69.
With `Cc1cccc(C[C@@H]2NC(=O)[C@H](CC(=O)O)NC(=O)[C@H](Cc3ccc(OCC(=O)O)cc3)NC(=O)[C@H](C(C)O)NC(=O)CSC[C@@H](C(=O)N[C@H](CCC(=O)O)C(=O)NCCCCCCCCCCCC(=O)O)NC(=O)[C@H](C(C)O)NC(=O)[C@H](C(C)C)NC(=O)[C@H](CC3CCCCC3)NC(=O)[C@H](CCN)NC(=O)[C@@H](CC(C)C)NC(=O)[C@H](CCCN)NC(=O)[C@H](CCCNC(N)=O)NC(=O)[C@H](Cc3ccc(-c4ccccc4)cc3)NC(=O)[C@H](C(C)C)NC2=O)c1` (stereo partly drawn) [Compound 3553] ({CH2CO}-[Thr(3ξ)]Y(Carboxymethyl)D[Phe(3-Me)]V[Bip][Cit][Orn][dL][Dab][Cha]V[Thr(3ξ)]C[dE][12Ado]-OH; thioether N-14), the pIC50 is 7.43.
The figure for `Cc1cccc(C[C@@H]2NC(=O)[C@H](CC(=O)O)NC(=O)[C@H](Cc3ccc(OCC(=O)O)cc3)NC(=O)[C@H](C(C)O)NC(=O)CSC[C@@H](C(=O)N[C@@H](CCN)C(=O)NCCCCCCCCCCC(=O)O)NC(=O)[C@H](C(C)O)NC(=O)[C@H](C(C)C)NC(=O)[C@H](CC3CCCCC3)NC(=O)[C@H](CCN)NC(=O)[C@@H](CC(C)C)NC(=O)[C@H](CCCNC(=N)N)NC(=O)[C@H](CCCNC(N)=O)NC(=O)[C@H](Cc3ccc(-c4ccccc4)cc3)NC(=O)[C@H](C(C)C)NC2=O)c1` (stereo partly drawn) [Compound 3554] ({CH2CO}-[Thr(3ξ)]Y(Carboxymethyl)D[Phe(3-Me)]V[Bip][Cit]R[dL][Dab][Cha]V[Thr(3ξ)]C[Dab][Aun]-OH; thioether N-14) is 7.74; for `CCCC[C@H]1C(=O)N[C@@H](Cc2ccc(OCC(=O)O)cc2)C(=O)N[C@@H](CC(=O)O)C(=O)N[C@@H](Cc2cccc(C)c2)C(=O)N[C@@H](C(C)C)C(=O)N[C@@H](Cc2ccc(-c3ccccc3)cc2)C(=O)N[C@@H](CCCNC(N)=O)C(=O)N[C@@H](CCCN)C(=O)N[C@H](CC(C)C)C(=O)N[C@@H](CCN)C(=O)N[C@@H](CC2CCCCC2)C(=O)N[C@@H](C(C)C)C(=O)N[C@@H](C(C)O)C(=O)N[C@H](C(=O)N[C@@H](CCN)C(=O)NCCCCCCCCCCC(=O)O)CSCC(=O)N1C` (stereo partly drawn) [Compound 3555] ({CH2CO}-[NMeNle]Y(Carboxymethyl)D[Phe(3-Me)]V[Bip][Cit][Orn][dL][Dab][Cha]V[Thr(3ξ)]C[Dab][Aun]-OH; thioether N-14) it is 7.37.
